Data taken from patent US20200038600A1, “DEVICE AND METHOD FOR DRUG DELIVERY” (Insuline Medical Ltd., priority 2016, published 2020).
Like-named read-outs stand apart in the source and are kept apart here.

What was measured:
albumin = target: T1, albumin (Homo sapiens, UniProt P02768); details: once in the circulation; cited from earlier work
T1 construct: host or cells: endogenous albumin of the bloodstream

[1] = cited from earlier work
Type I diabetes subjects = experiment: Effect of heating or cooling the injection site on blood glucose after basal insulin (LANTUS) injection (FIG. 19); assay type: in vivo, human; details: for ΔBG_2H, blood glucose excursion change from control / ΔBG_3H, blood glucose excursion change from control / ΔBG_4H, blood glucose excursion change from control: fasting
Excerpt: FIG. 19 is a graph showing results of a study of the effect of applying a treatment (cooling or heating) for regulating the absorption of a drug (insulin) on an analyte level (insulin and/or blood glucose level) over time measured in minutes.
The experiment tests the effect of treatment (e.g. cooling and heating) at the injection site on insulin and glucose blood levels during nine hours following long acting, basal insulin (LANTUS) injection. The tested treatments included heating the skin over the injection site to 40° C. and cooling the skin over the injection site to 20° C. Each subject underwent three procedures during three different days including control, heating and cooling in random order, thus each subject served as his/her own control.
Type I diabetes subjects under fasting conditions injected their usual basal insulin dose which is intended to keep their blood glucose level stable. Two hours after injection a stabilization period commenced in which a subject's blood glucose levels was adjusted to a target blood glucose level using IV insulin or IV glucose administration. The starting glucose level was 150 mg/dl±20 mg/dl. […] In the two testing days the heating or cooling elements were attached to the injection site and heating or cooling was started for a period of four hours and no intervention (besides the treatment, i.e. cooling or heating) was performed during this period. The procedure continued for another two hours without intervention. On the control day no intervention or treatment was applied. During the whole procedure blood samples were collected for blood glucose and insulin concentration measurements every 20 minutes. Safety limits of the study were 75 mg/dl as the low limit, and 250 mg/dl as the high limit. If the subject's blood glucose level was below 75 mg/dl, then a 10% glucose solution was given intravenously to increase the subject's blood glucose level. If the subject's blood glucose level was above 250 mg/dl then IV insulin was given to reduce blood glucose level.

diabetes subjects = experiment: Effect of cooling the injection site on blood glucose after basal insulin (LANTUS) injection (FIG. 20); assay type: in vivo, human
Procedure: FIG. 20 is a graph showing results of a study of the effect of applying cooling for regulating the absorption of a drug (insulin) on an analyte level (insulin and/or blood glucose level) over time measured in minutes.
The diabetes subjects under fasting conditions injected their usual basal insulin dose (LANTUS) which is intended to keep their blood glucose level stable. […] Cooling commenced at 2 hours and was applied for 3 hours successfully raising he blood glucose level back to 142 mg/dl.

T1 sequence (P02768 25-609): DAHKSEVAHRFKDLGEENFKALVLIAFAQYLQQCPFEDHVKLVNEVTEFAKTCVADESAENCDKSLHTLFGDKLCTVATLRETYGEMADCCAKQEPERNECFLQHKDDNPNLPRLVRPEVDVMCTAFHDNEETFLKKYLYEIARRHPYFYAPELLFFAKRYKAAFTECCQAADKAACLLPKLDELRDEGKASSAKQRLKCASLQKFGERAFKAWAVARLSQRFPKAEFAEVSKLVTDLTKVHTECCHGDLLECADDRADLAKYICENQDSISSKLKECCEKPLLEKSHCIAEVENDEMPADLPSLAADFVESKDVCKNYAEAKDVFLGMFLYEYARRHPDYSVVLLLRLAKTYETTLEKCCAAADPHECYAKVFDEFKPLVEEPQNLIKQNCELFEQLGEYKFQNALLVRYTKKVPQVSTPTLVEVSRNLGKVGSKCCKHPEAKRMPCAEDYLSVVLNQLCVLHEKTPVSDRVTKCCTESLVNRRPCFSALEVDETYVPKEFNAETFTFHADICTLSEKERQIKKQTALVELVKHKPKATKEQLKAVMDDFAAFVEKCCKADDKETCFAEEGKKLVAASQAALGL

insulin detemir
albumin bound (albumin): 98%

insulin glargine [LANTUS]
solubility ([1]; neutral pH (pH 7.4)): forms precipitates
solubility ([1]; pH 4): soluble
increase in blood glucose levels (Type I diabetes subjects; applying cooling to the injection site (text b295)): 25 mg/dL
average decrease in blood glucose compared to no treatment at all (Type I diabetes subjects; applying heat to the injection site (text b295)): 40 mg/dL
ΔBG_2H, blood glucose excursion change from control (Type I diabetes subjects; cooling skin over injection site to 20° C., after 2 hours): +30 mg/dl
ΔBG_3H, blood glucose excursion change from control (Type I diabetes subjects; cooling skin over injection site to 20° C., after 3 hours): +42 mg/dl
ΔBG_4H, blood glucose excursion change from control (Type I diabetes subjects; cooling skin over injection site to 20° C., after 4 hours): +50 mg/dl
blood glucose levels over time (FIG. 19) (Type I diabetes subjects; cooling the injection site): increased
increase in blood glucose compared to no intervention (Type I diabetes subjects; cooling the injection site, after 2 hours): about 42 mg/dl
increase in blood glucose compared to no intervention (Type I diabetes subjects; cooling the injection site, after 3 hours): ~59 mg/dL
increase in blood glucose compared to no intervention (Type I diabetes subjects; cooling the injection site, after 4 hours): ~65 mg/dL
ΔBG_2H, blood glucose excursion change from control (Type I diabetes subjects; heating skin over injection site to 40° C., after 2 hours): -29 mg/dL
ΔBG_3H, blood glucose excursion change from control (Type I diabetes subjects; heating skin over injection site to 40° C., after 3 hours): -32 mg/dL
ΔBG_4H, blood glucose excursion change from control (Type I diabetes subjects; heating skin over injection site to 40° C., after 4 hours): -32 mg/dL
blood glucose levels over time (FIG. 19) (Type I diabetes subjects; heating the injection site): decreased
average decrease in blood glucose compared to no intervention (Type I diabetes subjects; heating the injection site, after 2 hours): 15 mg/dL
average decrease in blood glucose compared to no intervention (Type I diabetes subjects; heating the injection site, after 3 hours): 21 mg/dL
average decrease in blood glucose compared to no intervention (Type I diabetes subjects; heating the injection site, after 4 hours): 26 mg/dL
blood glucose levels over time (FIG. 19) (Type I diabetes subjects; no intervention applied to the injection site): stable around the base line
blood glucose level (diabetes subjects; after cooling applied for 3 hours, commenced at 2 hours): 142 mg/dL
initial blood glucose level (diabetes subjects; at injection, fasting): 143 mg/dL
blood glucose level (diabetes subjects; within 2 hours after injection, before cooling): 94 mg/dL
